Laboratory results taken from US10168342B2, “Lipid probes and uses thereof” (THE SCRIPPS RESEARCH INSTITUTE, priority 2015, dated 2019).
Like-named read-outs stand apart in the source and are kept apart here.

Tests used:
[1] = target: T1, AEA-DA lipid probe targets in Neuro2a cells (Mus musculus, UniProt P52825)
T1 sequence (P52825 26-658): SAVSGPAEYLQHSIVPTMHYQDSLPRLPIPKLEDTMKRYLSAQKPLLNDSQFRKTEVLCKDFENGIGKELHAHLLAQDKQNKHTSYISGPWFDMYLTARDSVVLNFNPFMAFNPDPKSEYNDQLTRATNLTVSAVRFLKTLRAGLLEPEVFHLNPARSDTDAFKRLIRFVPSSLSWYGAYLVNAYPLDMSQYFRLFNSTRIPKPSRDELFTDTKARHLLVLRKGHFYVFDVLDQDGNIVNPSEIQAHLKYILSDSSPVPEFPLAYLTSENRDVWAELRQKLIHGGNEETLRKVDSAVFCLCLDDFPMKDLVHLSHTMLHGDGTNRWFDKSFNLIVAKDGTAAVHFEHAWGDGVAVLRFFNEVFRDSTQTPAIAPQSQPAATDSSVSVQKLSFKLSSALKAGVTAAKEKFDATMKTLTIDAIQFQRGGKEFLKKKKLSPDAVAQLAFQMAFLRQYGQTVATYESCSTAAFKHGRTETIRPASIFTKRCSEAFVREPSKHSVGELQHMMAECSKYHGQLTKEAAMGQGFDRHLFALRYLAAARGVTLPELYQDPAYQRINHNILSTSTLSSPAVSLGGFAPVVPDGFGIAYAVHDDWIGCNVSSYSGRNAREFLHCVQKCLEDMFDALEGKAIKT

[2] = target: T2, AEA-DA lipid probe targets in Neuro2a cells (Mus musculus, UniProt Q8BH59)
T2 sequence (Q8BH59 1-677): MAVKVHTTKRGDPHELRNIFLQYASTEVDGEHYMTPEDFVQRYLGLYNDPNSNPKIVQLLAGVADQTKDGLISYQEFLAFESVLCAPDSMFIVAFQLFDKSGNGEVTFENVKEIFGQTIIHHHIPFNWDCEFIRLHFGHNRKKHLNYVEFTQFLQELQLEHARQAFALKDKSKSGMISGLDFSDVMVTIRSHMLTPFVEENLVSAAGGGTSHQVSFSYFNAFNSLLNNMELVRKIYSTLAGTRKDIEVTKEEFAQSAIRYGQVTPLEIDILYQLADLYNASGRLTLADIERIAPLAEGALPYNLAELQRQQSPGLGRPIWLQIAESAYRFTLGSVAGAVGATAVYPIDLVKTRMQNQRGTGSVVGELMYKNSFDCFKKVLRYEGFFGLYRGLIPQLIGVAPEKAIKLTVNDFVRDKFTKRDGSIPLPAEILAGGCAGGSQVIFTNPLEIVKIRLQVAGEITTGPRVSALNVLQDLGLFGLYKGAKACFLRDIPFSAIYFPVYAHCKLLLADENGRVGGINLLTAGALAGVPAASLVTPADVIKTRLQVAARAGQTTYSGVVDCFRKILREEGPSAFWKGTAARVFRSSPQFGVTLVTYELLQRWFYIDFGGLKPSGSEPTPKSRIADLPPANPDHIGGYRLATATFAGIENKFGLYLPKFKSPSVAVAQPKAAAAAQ

[3] = target: AEA-DA lipid probe targets in Neuro2a cells (Mus musculus, UniProt Q9Z0V7)
[4] = target: T3, AEA-DA lipid probe targets in Neuro2a cells (Mus musculus, UniProt Q91YQ5)
T3 sequence (Q91YQ5 26-608): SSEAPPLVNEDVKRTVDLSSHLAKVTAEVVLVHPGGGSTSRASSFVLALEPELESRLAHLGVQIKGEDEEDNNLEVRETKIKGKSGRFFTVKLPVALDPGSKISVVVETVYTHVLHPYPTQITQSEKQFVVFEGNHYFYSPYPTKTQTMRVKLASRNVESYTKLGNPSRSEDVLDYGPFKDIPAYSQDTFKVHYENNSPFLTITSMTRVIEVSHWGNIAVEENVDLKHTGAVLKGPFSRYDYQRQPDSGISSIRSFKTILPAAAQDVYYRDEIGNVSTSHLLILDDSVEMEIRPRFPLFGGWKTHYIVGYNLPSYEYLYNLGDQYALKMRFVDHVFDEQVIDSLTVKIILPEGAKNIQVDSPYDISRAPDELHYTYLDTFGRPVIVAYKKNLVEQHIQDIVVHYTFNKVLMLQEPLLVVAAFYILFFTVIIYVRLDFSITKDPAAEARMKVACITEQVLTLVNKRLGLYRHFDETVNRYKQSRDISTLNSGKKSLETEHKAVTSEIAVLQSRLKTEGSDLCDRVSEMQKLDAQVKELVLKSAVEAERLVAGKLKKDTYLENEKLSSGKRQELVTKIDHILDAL

[5] = target: T4, AEA-DA lipid probe targets in Neuro2a cells (Mus musculus, UniProt Q8VDP6)
T4 sequence (Q8VDP6 1-213): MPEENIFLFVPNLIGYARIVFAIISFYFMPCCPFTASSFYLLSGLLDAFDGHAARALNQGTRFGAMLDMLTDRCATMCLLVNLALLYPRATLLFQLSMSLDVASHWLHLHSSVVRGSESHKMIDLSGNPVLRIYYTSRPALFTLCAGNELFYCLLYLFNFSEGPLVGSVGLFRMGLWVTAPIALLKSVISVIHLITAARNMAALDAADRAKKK

[6] = target: AEA-DA lipid probe targets in Neuro2a cells (Mus musculus, UniProt G5E895); details: competitor 25 μM
[7] = target: AEA-DA lipid probe targets in Neuro2a cells (Mus musculus, UniProt P97300); details: competitor 25 μM; for SILAC ratio, NPTN (Q9Y639): Neuro2a cells, AEA-DA probe
Chain of AEA-DA lipid probe targets in Neuro2a cells (Mus musculus, UniProt P97300) (P97300 29-397): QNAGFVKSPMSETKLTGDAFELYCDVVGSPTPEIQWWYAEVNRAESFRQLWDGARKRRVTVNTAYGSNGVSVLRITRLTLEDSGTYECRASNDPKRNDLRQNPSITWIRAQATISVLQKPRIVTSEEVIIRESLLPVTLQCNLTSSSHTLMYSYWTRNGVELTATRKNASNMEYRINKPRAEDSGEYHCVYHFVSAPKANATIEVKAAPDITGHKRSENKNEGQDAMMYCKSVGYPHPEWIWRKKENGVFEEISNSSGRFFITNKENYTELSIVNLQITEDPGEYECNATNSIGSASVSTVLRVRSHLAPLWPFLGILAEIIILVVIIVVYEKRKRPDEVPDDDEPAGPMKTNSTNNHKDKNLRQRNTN

Chain of AEA-DA lipid probe targets in Neuro2a cells (Mus musculus, UniProt Q9Z0V7) (Q9Z0V7 whole entry): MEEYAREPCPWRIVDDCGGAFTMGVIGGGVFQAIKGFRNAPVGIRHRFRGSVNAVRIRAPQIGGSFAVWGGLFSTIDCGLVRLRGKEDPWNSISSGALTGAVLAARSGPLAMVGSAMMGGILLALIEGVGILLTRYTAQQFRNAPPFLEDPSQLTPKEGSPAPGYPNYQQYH
Chain of AEA-DA lipid probe targets in Neuro2a cells (Mus musculus, UniProt G5E895) (G5E895 1-316): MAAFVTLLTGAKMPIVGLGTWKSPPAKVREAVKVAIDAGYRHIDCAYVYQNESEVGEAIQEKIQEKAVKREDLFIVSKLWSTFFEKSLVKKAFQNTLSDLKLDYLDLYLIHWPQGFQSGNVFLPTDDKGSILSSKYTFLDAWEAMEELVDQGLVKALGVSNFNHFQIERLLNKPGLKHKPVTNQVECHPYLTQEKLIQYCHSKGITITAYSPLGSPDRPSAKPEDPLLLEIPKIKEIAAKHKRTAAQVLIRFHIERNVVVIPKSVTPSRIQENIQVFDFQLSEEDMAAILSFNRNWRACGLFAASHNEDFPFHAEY

Row | SMILES | SILAC ratio, Cpt2 ([1]; competitor 25 μM) | SILAC ratio Slc25a12 ([2]; competitor 25 μM) | SILAC ratio, Akr1b10 [6] | SILAC ratio, Timm17b ([3]; competitor 25 μM) | SILAC ratio Rpn1 ([4]; competitor 25 μM) | SILAC ratio, Cdipt ([5]; competitor 25 μM) | SILAC ratio, NPTN (Q9Y639) [7] | SILAC ratio, Nptn [7] | other results
1 | CCCCC/C=C\C/C=C\C/C=C\C/C=C\CCCC(=O)NCCO [AEA, anandamide, reference compound] | – | – | – | – | – | – | – | – | SILAC ratio, Cpt2 ([1]; competitor 200 μM): 1.1; SILAC ratio Slc25a12 ([2]; competitor 200 μM): 1.1; SILAC ratio, Timm17b ([3]; competitor 200 μM): 1.6; SILAC ratio Rpn1 ([4]; competitor 200 μM): 1.6; SILAC ratio, Cdipt ([5]; competitor 200 μM): 1.8
2 | O=C(/C=C/c1cccnc1)NCCCCC1CCN(C(=O)c2ccccc2)CC1 [FK-866, reference compound] | 3.1 | 1.1 | 1.9 | 1.2 | 1.2 | 1.1 | 1.2 | 1.2 | –
3 | CN1CCN(C(=O)c2c(-c3ccccc3)c3cc([N+](=O)[O-])ccc3n2C)CC1 [KML110, (1-Methyl-5-nitro-3-phenyl-1H-indol-2-yl)(4-methylpiperazin-1-yl)methanone] | 1.5 | 1.1 | 3.9 | 1.8 | 1.2 | 0.9 | – | – | –
4 | CN1CCN(C(=O)c2[nH]c3ccc([N+](=O)[O-])cc3c2-c2ccccc2)CC1 [MJN228, (4-Methylpiperazin-1-yl)(5-nitro-3-phenyl-1H-indol-2-yl)methanone] | 1.7 | 1.0 | 2.8 | 1.5 | 1.4 | 1.0 | 1.9 | 1.9 | SILAC ratio, Cpt2 ([1]; competitor 10 μM): 1.3; SILAC ratio, Cpt2 ([1]; competitor 50 μM): 2.7; SILAC ratio, Cpt2 ([1]; competitor 100 μM): 5.5; SILAC ratio Slc25a12 ([2]; competitor 10 μM): 1.0; SILAC ratio Slc25a12 ([2]; competitor 50 μM): 0.9; SILAC ratio Slc25a12 ([2]; competitor 100 μM): 1.0; SILAC ratio, Timm17b ([3]; competitor 10 μM): 1.3; SILAC ratio, Timm17b ([3]; competitor 50 μM): 2.2; SILAC ratio, Timm17b ([3]; competitor 100 μM): 3.6; SILAC ratio Rpn1 ([4]; competitor 10 μM): 1.3; SILAC ratio Rpn1 ([4]; competitor 50 μM): 1.2; SILAC ratio Rpn1 ([4]; competitor 100 μM): 1.6; SILAC ratio, Cdipt ([5]; competitor 10 μM): 1.0; SILAC ratio, Cdipt ([5]; competitor 50 μM): 0.7; SILAC ratio, Cdipt ([5]; competitor 100 μM): 0.8
5 | C=CCN(C)CCCCCCOc1ccc(C(=O)c2ccc(Br)cc2)c(F)c1 [Ro 48-8071, reference compound] | 2.1 | 1.0 | 1.5 | 2.8 | 0.9 | 0.7 | 2.0 | 2.0 | –
